Measured values published in patent US9546153B2, “Bicyclic heterocycle substituted pyridyl compounds useful as kinase modulators” (BRISTOL-MYERS SQUIBB COMPANY, priority 2012, dated 2017).
Like-named read-outs stand apart in the source and are kept apart here.

Legend:
IRAK4 = IRAK4 (Homo sapiens (Human), UniProt Q9NWZ3); assay: IRAK4 Inhibition Assay; assay type: biochemical; conditions: ATP 500 μM; IRAK4 0.6 nM; 60 min at room temperature
Experimental: The assays were performed in U-bottom 384-well plates. […] The reaction was initiated by the combination of IRAK4 with substrates and test compounds. The reaction was incubated at room temperature for 60 min. and terminated by adding 45 μL of 35 mM EDTA to each sample. The reaction mixture was analyzed on the Caliper LABCHIP® 3000 (Caliper, Hopkinton, Mass.) by electrophoretic separation of the fluorescent substrate and phosphorylated product.

[1] = system: TLR2 induced IL-6 in peripheral blood mononuclear cells (PBMCs); assay: PBMC TLR2 Induced IL-6 Assay; assay type: cell-based, human; conditions: human PBMCs, 10 μg/ml lipoteichoic acid for 5 hours, IL-6 by ELISA, value without asterisk, read-out: Cell IC50
Method in brief: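 Human PBMCs (250000 cells/well) in RPMI with 10% heat-inactivated FCS pre-treated with compound for 30 min at 37° C, then stimulated 5 h with 10 μg/ml lipoteichoic acid. Supernatant IL-6 measured by ELISA and reported as IC50 or EC50.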

Chain of IRAK4 (Q9NWZ3 whole entry, species assumed): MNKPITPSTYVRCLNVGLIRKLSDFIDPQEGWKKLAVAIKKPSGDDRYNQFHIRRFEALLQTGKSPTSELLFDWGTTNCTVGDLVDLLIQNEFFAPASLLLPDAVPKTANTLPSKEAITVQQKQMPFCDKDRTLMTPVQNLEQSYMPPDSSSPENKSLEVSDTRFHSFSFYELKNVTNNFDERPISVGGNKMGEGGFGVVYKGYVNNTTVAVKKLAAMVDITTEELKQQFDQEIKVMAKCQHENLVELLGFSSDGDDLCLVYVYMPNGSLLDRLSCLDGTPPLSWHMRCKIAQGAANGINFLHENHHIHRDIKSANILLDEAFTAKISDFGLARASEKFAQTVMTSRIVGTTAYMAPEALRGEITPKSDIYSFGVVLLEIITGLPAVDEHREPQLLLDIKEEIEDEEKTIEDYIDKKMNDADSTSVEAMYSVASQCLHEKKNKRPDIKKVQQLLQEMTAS

| IC50 (IRAK4) | SMILES | IC50 ([1]; Homo sapiens, PBMC, 5 h) | IC50 [1] |
| --- | --- | --- | --- |
| 2.7 nM | CC(C)(F)CNc1cc(Nc2ccc3ncsc3n2)ncc1C(=O)NC[C@@H](F)C(C)(C)O [Example 314] | 115 nM | – |
| 3.9 nM | CC(C)(O)[C@H](F)CNC(=O)c1cnc(Nc2cc3scnc3cn2)cc1NC1CC1 [Example 315] | 426 nM | – |
| 4.7 nM | CC(C)(F)CNc1cc(Nc2cc3scnc3cn2)ncc1C(=O)NC[C@@H](F)C(C)(C)O [Example 316] | 429 nM | – |
| 1.7 nM | CCC(O)(CC)[C@H](F)CNC(=O)c1cnc(Nc2ccc3ncsc3c2)cc1NCC(C)(C)F [Example 317] | 374 nM | – |
| 6.9 nM | CC(C)Nc1cc(Nc2ccn3nccc3n2)ncc1C(=O)NC12CCC(N)(CC1)CC2 [Example 318, N-(4-aminobicyclo[2.2.2]octan-1-yl)-4-(isopropylamino)-6-(pyrazolo[1,5-a]pyrimidin-5-ylamino)nicotinamide] | 278 nM | – |
| 3 nM | CNC(=O)c1ccc(Nc2cc(Nc3ccc4ncsc4c3)ncc2C(=O)NC[C@@H](F)C(C)(C)O)cc1 [Example 319, (R)-6-(benzo[d]thiazol-6-ylamino)-N-(2-fluoro-3-hydroxy-3-methylbutyl)-4-(4-(methylcarbamoyl)phenylamino)nicotinamide] | 315 nM | – |
| 2.4 nM | CC(C)(O)[C@H](F)CNC(=O)c1cnc(Nc2ccc3ncsc3c2)cc1Nc1ccc(C(N)=O)cc1 [Example 320] | 270 nM | – |
| 6.4 nM | CC(C)(O)[C@H](F)CNC(=O)c1cnc(Nc2ccc3ncsc3c2)cc1Nc1ccc(C(=O)NC2CC2)cc1 [Example 321] | 1140 nM | – |
| 8.5 nM | CCNC(=O)c1ccc(Nc2cc(Nc3ccc4ncsc4c3)ncc2C(=O)NC[C@@H](F)C(C)(C)O)cc1 [Example 322] | 495 nM | – |
| 10.7 nM | CC(C)(O)[C@H](F)CNC(=O)c1cnc(Nc2ccc3ncsc3c2)cc1Nc1ccc(C(=O)NCC(F)(F)F)cc1 [Example 324] | 190 nM | – |
| 4.9 nM | CC(C)(O)[C@H](F)CNC(=O)c1cnc(Nc2ccc3ncsc3c2)cc1Nc1ccc(C(=O)NCCO)cc1 [Example 325] | 853 nM | – |
| 12.9 nM | CCCNC(=O)c1ccc(Nc2cc(Nc3ccc4ncsc4c3)ncc2C(=O)NC[C@@H](F)C(C)(C)O)cc1 [Example 326] | 437 nM | – |
| 9.7 nM | CC(C)(O)[C@H](F)CNC(=O)c1cnc(Nc2ccc3ncsc3c2)cc1N[C@H]1CCCC(O)C1 (stereo partly drawn) [Example 327, 6-(benzo[d]thiazol-6-ylamino)-N—((R)-2-fluoro-3-hydroxy-3-methylbutyl)-4-(3-hydroxycyclohexylamino)nicotinamide] | – | 1000 nM |
| 4.8 nM | CC(C)(O)[C@H](F)CNC(=O)c1cnc(Nc2ccc3ncsc3c2)cc1N[C@H]1CCCC(O)C1 (stereo partly drawn) [Example 328] | – | 491 nM |
| 3.2 nM | CC(C)(O)C(F)CNC(=O)c1cnc(Nc2ccc3ncsc3c2)cc1N[C@H]1CCCC(F)C1 (stereo partly drawn) [Example 329, 6-(benzo[d]thiazol-6-ylamino)-N-(2-fluoro-3-hydroxy-3-methylbutyl)-4-(3-fluorocyclohexylamino)nicotinamide] | 113 nM | – |
| 2.2 nM | CC(C)(O)[C@H](F)CNC(=O)c1cnc(Nc2ccc3ncncc3c2)cc1N[C@@H]1CCC[C@H]1O [Example 330] | 76 nM | – |
| 2.4 nM | CC(C)C(O)[C@H](F)CNC(=O)c1cnc(Nc2ccc3ncsc3c2)cc1N[C@@H]1CCC[C@H]1O (stereo partly drawn) [Example 331] | – | 163 nM |
| 3.1 nM | CC(C)C(O)[C@H](F)CNC(=O)c1cnc(Nc2ccc3ncsc3c2)cc1N[C@@H]1CCC[C@H]1O (stereo partly drawn) [Example 332] | – | 791 nM |
| 4.1 nM | CC(O)([C@H](F)CNC(=O)c1cnc(Nc2ccc3ncsc3c2)cc1N[C@@H]1CCC[C@H]1O)C(F)(F)F (stereo partly drawn) [Example 333] | – | 152 nM |
| 4.5 nM | CC(O)([C@H](F)CNC(=O)c1cnc(Nc2ccc3ncsc3c2)cc1N[C@@H]1CCC[C@H]1O)C(F)(F)F (stereo partly drawn) [Example 334] | – | 321 nM |
| 5.8 nM | O=C(NC[C@@H](F)CO)c1cnc(Nc2ccc3ncsc3c2)cc1NC1CCCC1O (stereo partly drawn) [Example 337] | 799 nM | – |
| 17.1 nM | CC(C)(O)[C@H](F)CNC(=O)c1cnc(Nc2ccc3nccnc3c2)cc1NC1CCCC1O (stereo partly drawn) [Example 338] | 493 nM | – |
| 3 nM | CC(C)(O)[C@H](F)CNC(=O)c1cnc(Nc2ccc3ncsc3c2)cc1N[C@@H]1CCCC1F (stereo partly drawn) [Example 343] | – | 114 nM |
| 1.8 nM | CC(C)(O)[C@H](F)CNC(=O)c1cnc(Nc2ccc3ncsc3c2)cc1N[C@@H]1CCCC1F (stereo partly drawn) [Example 344] | – | 38 nM |
| 3.2 nM | Cc1nc2cc(F)c(Nc3cc(NC4CCCC4F)c(C(=O)NC[C@@H](F)C(C)(C)O)cn3)cc2s1 (stereo partly drawn) [Example 347] | 327 nM | – |

| IC50 (IRAK4) | SMILES | IC50 ([1]; Homo sapiens, PBMC, 5 h) | IC50 [1] |
| --- | --- | --- | --- |
| 6.7 nM | CC(C)(O)[C@H](F)CNC(=O)c1cnc(Nc2ccc3nccnc3c2)cc1NC1CCCC1F (stereo partly drawn) [Example 348] | 562 nM | – |
| 8.6 nM | Cc1nc2ccc(Nc3cc(NC4CCCC4F)c(C(=O)NC[C@@H](F)C(C)(C)O)cn3)cc2s1 (stereo partly drawn) [Example 349] | – | 475 nM |
| 2.7 nM | Cc1nc2ccc(Nc3cc(NC4CCCC4F)c(C(=O)NC[C@@H](F)C(C)(C)O)cn3)cc2s1 (stereo partly drawn) [Example 350] | – | 148 nM |
| 5.9 nM | CC(C)(O)[C@H](F)CNC(=O)c1cnc(Nc2ccc3ncccc3c2)cc1NC1CCCC1F (stereo partly drawn) [Example 351] | 227 nM | – |
| 3.8 nM | O=C(NC1CCC(O)CC1)c1cnc(Nc2ccc3ncsc3c2)cc1NC1CCCC1F (stereo not drawn) [Example 352] | – | 245 nM |
| 2.9 nM | O=C(NC1CCC(O)CC1)c1cnc(Nc2ccc3ncsc3c2)cc1NC1CCCC1F (stereo not drawn) [Example 353] | – | 112 nM |
| 4.4 nM | CC(C)(O)[C@H](F)CNC(=O)c1cnc(Nc2ccc3ncoc3c2)cc1N[C@@H]1CCCC1F (stereo partly drawn) [Example 354] | 402 nM | – |
| 2.2 nM | CC(C)(O)[C@H](F)CNC(=O)c1cnc(Nc2ccc3ncoc3c2)cc1N[C@@H]1CCCC1F (stereo partly drawn) [Example 355] | – | 236 nM |
| 3 nM | CC(C)(O)[C@H](F)CNC(=O)c1cnc(Nc2ccc3nonc3c2)cc1N[C@@H]1CCCC1F (stereo partly drawn) [Example 356] | 281 nM | – |
| 7.2 nM | CC(C)(O)[C@H](F)CNC(=O)c1cnc(Nc2ccc3nonc3c2)cc1N[C@@H]1CCCC1F (stereo partly drawn) [Example 357] | – | 399 nM |
| 2.4 nM | CC(C)(O)[C@H](F)CNC(=O)c1cnc(Nc2ccc3ncsc3c2)cc1NC1CCCC1(F)F (stereo partly drawn) [Example 358] | 48 nM | – |
| 4.6 nM | CC(C)(O)[C@H](F)CNC(=O)c1cnc(Nc2ccc3nccnc3c2)cc1NC1CCCC1(F)F (stereo partly drawn) [Example 359] | 188 nM | – |
| 2.8 nM | CC(C)(O)[C@H](F)CNC(=O)c1cnc(Nc2ccc3ncccc3c2)cc1NC1CCCC1(F)F (stereo partly drawn) [Example 360] | 73 nM | – |
| 9.3 nM | CC(C)(O)[C@@H](F)CNC(=O)c1cnc(Nc2ccc3ncsc3c2)cc1NC1CC1 [Example 366, (S)-6-(benzo[d]thiazol-6-ylamino)-4-(cyclopropylamino)-N-(2-fluoro-3-hydroxy-3-methylbutyl)nicotinamide] | 734 nM | – |
| 4.8 nM | CC(C)Nc1cc(Nc2nc3ccnn3cc2F)ncc1C(=O)NC[C@@H](F)C(C)(C)O [Example 367, (R)—N-(2-fluoro-3-hydroxy-3-methylbutyl)-6-((6-fluoropyrazolo[1,5-a]pyrimidin-5-yl)amino)-4-(isopropylamino)nicotinamide] | 569 nM | – |
| 5.3 nM | CC(C)(O)[C@H](F)CNC(=O)c1cnc(Nc2nc3ccnn3cc2F)cc1NC1CC1 [Example 368] | – | 445 nM |
| 8.1 nM | CC(C)(O)[C@H](F)CNC(=O)c1cnc(Nc2nc3ccnn3cc2F)cc1NC1CCOCC1 [Example 369] | 859 nM | – |
| 6 nM | CC(C)(O)[C@H](F)CNC(=O)c1cnc(Nc2ncc3ncccc3n2)cc1NC1CCOCC1 [Example 371] | 604 nM | – |
| 5.1 nM | CC(C)(F)CNc1cc(Nc2ccc3ncc(C#N)cc3n2)ncc1C(=O)NC[C@@H](F)C(C)(C)O [Example 373] | 431 nM | – |
| 3.1 nM | CC(C)Nc1cc(Nc2ccc3ncc(Cl)cc3n2)ncc1C(=O)NC[C@@H](F)C(C)(C)O [Example 374] | 271 nM | – |
| 6.3 nM | CC(C)(O)[C@H](F)CNC(=O)c1cnc(Nc2ccc3ncsc3c2)cc1Nc1ccc(S(C)(=O)=O)cc1 [Example 382] | 491 nM | – |
| 6.3 nM | CC(C)(O)[C@H](F)CNC(=O)c1cnc(Nc2ccn3nccc3n2)cc1Nc1ccc(S(C)(=O)=O)cc1 [Example 383] | 194 nM | – |
| 3.5 nM | CC(C)(O)[C@H](F)CNC(=O)c1cnc(Nc2ccc3ncsc3c2)cc1NC1CCSCC1 [Example 384] | 180 nM | – |
| 4.3 nM | CC(C)(O)[C@H](F)CNC(=O)c1cnc(Nc2ccn3nccc3n2)cc1NC1CCSCC1 [Example 385] | 135 nM | – |
| 20.1 nM | CC(C)(O)[C@H](F)CNC(=O)c1cnc(Nc2ccn3nccc3n2)cc1NCC(F)F [Example 386] | 516 nM | – |

| SMILES | IC50 (IRAK4) | IC50 ([1]; Homo sapiens, PBMC, 5 h) | IC50 [1] |
| --- | --- | --- | --- |
| CC(C)(O)C(F)CNC(=O)c1cnc(Nc2ccc3ncsc3c2)cc1NC1CC(C(F)F)C1 (stereo not drawn) [Example 361, 4-(3-(difluoromethyl)cyclobutylamino)-6-(3a,27a-dihydrobenzo[d]thiazol-6-ylamino)-N-(2-fluoro-3-hydroxy-3-methylbutyl)nicotinamide] | 6.9 nM | – | 176 nM |
